Each structure is given as a SMILES string. Read-outs that look alike come from different tables or passages of the source. Marks after values point to notes of the source that are not given here. Some results are limits rather than exact numbers.

Data set [1] can be described thus: Microplate spectrophotometric method (DCYA assay), fluorescence end-point. The conditions noted are these: for DCYA 100-RI: RI = reactivity index, 2 equiv. electrophile, pH 10 buffer; for DCYA binary classification: FN: false negative; for DCYA binary classification: FP: false positive; for DCYA binary classification: TN: true negative; for DCYA binary classification: TP: true positive, positive if 100-RI <95; for DCYA assay reactivity / classification in words: microplate spectrophotometric method.

For data set [2] the following is noted: cited from earlier work; for LLNA (EC3): effective concentration, published literature (Table 1); for LLNA Classification: published literature; for LLNA EC3: reported results (Table 7).
The subject of data set [3] is thiol peptide. The conditions noted are these: cited from earlier work; for Cys-DPRA, percentage of thiol peptide depleted: adopted from the literature; for Cys-DPRA % Pept. remain.: reported results from the literature.
The test system of data set [4] is ARE-dependent gene activity in a recombinant cell line. The conditions noted are these: cited from earlier work.
In data set [5] the test system is thiol peptide. Description: Cys-DPRA (Direct Peptide Reactivity Assay), literature data. The note with it: for Cys-DPRA binary classification: FN: false negative; for Cys-DPRA binary classification: FP: false positive; for Cys-DPRA binary classification: TN: true negative; for Cys-DPRA binary classification: TP: true positive.
Data set [6] in a line: NMR method: depletion of electrophile signal on reaction with DCYA. The conditions noted are these: for Conversion at t30 (depletion of electrophile signal): at 30 min; for Conversion at t30 (depletion of electrophile signal) / NMR Method conversion: 1 equiv. DCYA; for NMR Classification: based on depletion of electrophile signal at 30 min; for NMR Method conversion: conversion of test chemical at 90 min, 0.1 equiv. DBN, CDCl3. The text has this: The described example can be applied to pure chemicals and mixtures. The method includes the acquisition of at least one NMR spectrum, mixing an electrophile and a nucleophile to acquire an array of control spectra and an addition of catalyst to record an array of reaction spectra. It also includes the quantification of at least one signal and the comparison of the signal with a control and the classification of the reaction based on the depletion of potential sensitizer based on the quantified residual signal.
2,5-Dimethylfuran was used as internal standard. When necessary, characterization of the product(s) formed during the reaction(s) was performed by homonuclear ^1H connectivities using 2D-COSY experiments. […] Two- and three bond ^1H-^13C connectivities were determined by gradient-HMBC experiments in which the evolution period for long-range ^1H-^13C coupling constants was optimized for a ^2,3JC,H of 8 Hz. Through-space ^1H connectivities were determined using a NOESY experiment with a mixing time of 0.450 s. […] Toronto, Canada].
In a 3 mm NMR tube, 1 volume of DCYA (100) mM in CDCl3) was mixed with one volume of sensitizer (100 mM in CDCl3) to give a final concentration of 50 mM for both DCYA and the sensitizer. Control ^1H NMR spectra (reference spectra) were recorded at regular intervals of for a minimum of 5 min. […] All spectra were recorded at constant temperature. All experiments were conducted using the manufacturer's standard presaturation pulse programs and experimental conditions were chosen as explained in NMR spectroscopy section. The progress of the reaction was followed by the diminished peak areas of the resonances for the signal of interest. The spectra were phased, referenced, and integrated using NMR data elaboration software. The structural characterizations of the resulting adducts were confirmed by conducting additional 2D-NMR experiments when necessary.
Covalent reaction of DCYA with carvone is dependent on the activation of the nucleophilic group (ex. sulfhydryl group to the reactive thio-anion) under basic conditions. This reaction is strongly dependent on the nature of the nucleophile and may be modulated by careful choice of the model nucleophile and the reaction conditions.
The control spectra are used as reference spectra (FIG. 3A). All the spectra were subjected to automatic phase and baseline correction using a Bernstein polynomial fit (order 3). After these two steps, all the spectra were integrated over the areas of interest. […] Both vinylic and adduct peak areas were normalized relative to the internal standard signal peaks. […] The concentrations of both electrophile and adduct were then plotted as percentage against time (in minutes). (FIG. 5).

For the compound `C=C(C)C1CC=C(C=O)CC1` (stereo not drawn) [Perillaldehyde], in data set [1], the “DCYA 100-RI” value amounted to 95.8, the “DCYA binary classification: FN” value is on record as 1, the “DCYA binary classification: FP” value is on record as 0 and the “DCYA binary classification: TN” value worked out at 0. Further, the “DCYA binary classification: TP” value in data set [1] is listed as 0. For the same compound, in data set [2], the LLNA (EC3) was 8.1%, the “LLNA Classification” value is listed as “Moderate” and the LLNA EC3 is 8.1%. In addition, in data set [3], the “Cys-DPRA, percentage of thiol peptide depleted” value (“Cys-DPRA, percentage” below) is 31.9% and the “Cys-DPRA % Pept. remain.” value was 68.1%. The “KeratinoSens ™ EC3” value in data set [4] (published literature (Table 1)) is 61.85 µM. Besides, in data set [4] (reported results (Table 7)), the “KeratinoSens ™ EC3” value is 61.85 µM. In data set [5], the “Cys-DPRA binary classification: FN” value came to 0, the “Cys-DPRA binary classification: FP” value turned out to be 0, the “Cys-DPRA binary classification: TN” value amounted to 0 and the “Cys-DPRA binary classification: TP” value is given as 1. In addition, in data set [6], the “NMR assay reactivity / classification in words” value is “moderate/low electrophilic behavior”, the “Conversion at t30 (depletion of electrophile signal)” value (“Conversion at t30” for short) was determined as 28%, the “NMR Classification” value is “Weak-moderate” and the “NMR Method conversion” value turned out to be 28%.

With `O=C1C=CC(=O)C=C1` [p-Benzoquinone], in data set [1], the “DCYA 100-RI” value worked out at 34.5, the “DCYA binary classification: FN” value was 0, the “DCYA binary classification: FP” value stood at 0 and the “DCYA assay reactivity / classification in words” value is “correctly identified as a sensitizer”. For the same compound, in data set [1], the “DCYA binary classification: TN” value is given as 0 and the “DCYA binary classification: TP” value is recorded as 1. Moreover, in data set [2], the LLNA (EC3) is 0.01%, the “LLNA Classification” value is reported as “Extreme” and the LLNA EC3 was 0.01%. Also, in data set [3], the “Cys-DPRA, percentage” value is listed as 99.0% and the “Cys-DPRA % Pept. remain.” value was 1%. Further, the “KeratinoSens ™ EC3” value in data set [4] (published literature (Table 1)) was 32.77 µM. The “KeratinoSens ™ EC3” value in data set [4] (reported results (Table 7)) is 32.77 µM. In data set [5], the “Cys-DPRA binary classification: FN” value came out at 0, the “Cys-DPRA binary classification: FP” value stood at 0, the “Cys-DPRA binary classification: TN” value is reported as 0 and the “Cys-DPRA binary classification: TP” value stood at 1. In addition, in data set [6], the “NMR assay reactivity / classification in words” value is “high reactivity”, the “Conversion at t30” value turned out to be 95%, the “NMR Classification” value is reported as “Strong” and the “NMR Method conversion” value was 95^# %. Besides, the “Depletion in less than five minutes” value in data set [6] (NMR, less than five minutes) is greater than 95%.

Take `C=CC(=O)OCC` [Ethyl acrylate]: in data set [1], the “DCYA 100-RI” value was −0.7, the “DCYA binary classification: FN” value is recorded as 0, the “DCYA binary classification: FP” value stood at 0 and the “DCYA binary classification: TN” value turned out to be 0. Further, the “DCYA binary classification: TP” value in data set [1] is on record as 1. In data set [2], the LLNA (EC3) is 28%, the “LLNA Classification” value was “Weak” and the LLNA EC3 was 28%. Also, in data set [3], the “Cys-DPRA, percentage” value is reported as 96.4% and the “Cys-DPRA % Pept. remain.” value is listed as 3.6%. Also, in data set [4] (published literature (Table 1)), the “KeratinoSens ™ EC3” value is 231.19 µM. The “KeratinoSens ™ EC3” value in data set [4] (reported results (Table 7)) is 231.19 µM. Besides, in data set [5], the “Cys-DPRA binary classification: FN” value is listed as 0, the “Cys-DPRA binary classification: FP” value amounted to 0, the “Cys-DPRA binary classification: TN” value was determined as 0 and the “Cys-DPRA binary classification: TP” value is given as 1. Moreover, in data set [6], the “Conversion at t30” value amounted to 92%, the “NMR Classification” value is “Strong” and the “NMR Method conversion” value is 93%.

Consider `Oc1ccc(O)cc1` [p-Hydroquinone], for which, in data set [1], the “DCYA 100-RI” value is reported as 127.1 and the “DCYA assay reactivity / classification in words” value is “non-reactive”. Also, in data set [2], the LLNA (EC3) is 0.11%, the “LLNA Classification” value was “Strong” and the LLNA EC3 was 0.11%. Further, in data set [3], the “Cys-DPRA, percentage” value was 83.3% and the “Cys-DPRA % Pept. remain.” value is reported as 16.7%. Moreover, the “Cys-DPRA reactivity in words” value in data set [3] (literature) was “non-reactive”. In data set [4] (published literature (Table 1)), the “KeratinoSens ™ EC3” value is 51.29 µM. For the same compound, the “KeratinoSens ™ EC3” value in data set [4] (reported results (Table 7)) is 51.29 µM. Moreover, in data set [6], the “NMR assay reactivity / classification in words” value is “almost unreactive”, the “Conversion at t30” value is given as 5%, the “NMR Classification” value was “Non^$” and the “NMR Method conversion” value turned out to be 5%.

The record behind these values is patent publication US10261017B2, “Methods for detecting and categorizing skin sensitizers” (University of Mississippi, priority 2014, dated 2019).
